Experiments:
[1] = target: T1, Human pancreatic α-amylase (HPA) (Homo sapiens, UniProt P04746); test: Ligand binding to HPA by fluorescence quenching titration, thermodynamic parameters
T1 construct: purchased Sigma Aldrich, USA
T1 sequence (P04746 16-511): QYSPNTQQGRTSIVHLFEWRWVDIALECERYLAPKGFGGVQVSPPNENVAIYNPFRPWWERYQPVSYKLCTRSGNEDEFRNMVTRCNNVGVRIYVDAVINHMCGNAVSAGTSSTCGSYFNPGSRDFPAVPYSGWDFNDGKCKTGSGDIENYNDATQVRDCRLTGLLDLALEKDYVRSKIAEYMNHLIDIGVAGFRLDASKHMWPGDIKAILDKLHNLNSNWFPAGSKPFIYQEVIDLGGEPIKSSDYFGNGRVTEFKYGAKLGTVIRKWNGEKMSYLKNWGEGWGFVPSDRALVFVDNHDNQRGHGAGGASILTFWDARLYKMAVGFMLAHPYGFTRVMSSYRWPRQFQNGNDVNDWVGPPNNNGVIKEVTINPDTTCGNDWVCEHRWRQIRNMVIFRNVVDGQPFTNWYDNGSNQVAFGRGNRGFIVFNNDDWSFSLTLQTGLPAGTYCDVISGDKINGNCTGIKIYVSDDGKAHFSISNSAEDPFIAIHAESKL
Method: Ligand binding studies using fluorescence measurements of HPA were carried as described in our earlier report. […] Non-linear and linear regression analyses were used to analyze the data.
The thermodynamic parameters, association constants (K a), dissociation constant (K d) and Gibbs free energy (ΔG°) of binding for azadiradione and gedunin were determined at various temperatures 25°C to 60°C by fluorescence quenching studies.

[2] = target: T2, secreted pancreatic α-amylase of AR42J cells (Rattus norvegicus, UniProt P00689); test: Bioactivity: inhibition of secreted pancreatic α-amylase in dexamethasone-induced AR42J cells, incl. starch load test (DNSA); assay type: cell-based; conditions: AR42J
T2 construct: host or cells: AR42J rat pancreatic acinar cells, induced with 10 nM dexamethasone
T2 sequence (P00689 16-508): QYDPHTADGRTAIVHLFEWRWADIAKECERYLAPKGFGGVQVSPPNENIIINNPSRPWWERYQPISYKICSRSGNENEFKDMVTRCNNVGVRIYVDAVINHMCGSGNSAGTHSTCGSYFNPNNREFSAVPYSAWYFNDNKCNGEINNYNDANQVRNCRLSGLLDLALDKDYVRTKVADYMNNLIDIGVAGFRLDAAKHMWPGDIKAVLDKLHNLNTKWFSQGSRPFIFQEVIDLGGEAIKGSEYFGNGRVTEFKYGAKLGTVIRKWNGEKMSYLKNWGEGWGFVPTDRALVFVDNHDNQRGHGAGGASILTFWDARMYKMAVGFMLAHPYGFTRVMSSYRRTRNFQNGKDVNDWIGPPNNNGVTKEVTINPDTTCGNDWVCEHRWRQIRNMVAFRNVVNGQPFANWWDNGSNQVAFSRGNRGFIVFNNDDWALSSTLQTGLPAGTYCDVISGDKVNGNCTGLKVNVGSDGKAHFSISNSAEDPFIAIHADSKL
Excerpt: Appropriate medium and DMSO controls were simultaneously set up.

[3] = target: T1, Human pancreatic α-amylase (HPA); test: HPA inhibition kinetics (Michaelis-Menten, Lineweaver-Burk, secondary plots); assay type: biochemical
Method: The mode of inhibition of HPA by the lead inhibitors azadiradione and gedunin were determined using Michaelis-Menton and Lineweaver-Burk equations. Starch (1–5mg ml^-1) and maltopentaose (0.05–0.4mM) were incubated with inhibitors-HPA for 10 and 2.5 min, respectively and the residual enzyme activity determined by DNSA method for starch and Nelson-Somogyi’s method for maltopentaose.The inhibitor constants(K i) were determined on the basis of mode of inhibition.

[4] = test system: AR42J rat pancreatic acinar cells; conditions: 24 h, 3.5 μM
Method: (§1) Cells were seeded at 2×10^4 cells well^-1 onto 96 wells culture dish. […] Appropriate medium and DMSO controls were simultaneously set up. […] At the end of 24 h incubation period the culture media was removed from the samples and fresh culture media (100 μl) containing 20 μl of MTT tetrazolium bromide (5 mg ml^-1) added and incubated for 3 h at 37°C. Metabolically active cells reduce MTT to insoluble purple formazan dye crystals, which were dissolved by addition of 300 μl DMSO solution at the end of the incubation period and quantitated at 550 nm [34].

[5] = target: T3, Porcine pancreatic α-amylase (PPA) (Sus scrofa, UniProt P00690); test: Porcine pancreatic α-amylase inhibition assay, chromogenic DNSA method (primary screening); assay type: biochemical; conditions: starch 1% w/v, pH 6.9, 37°C
T3 construct: purchased SRL, Mumbai, India
T3 sequence (P00690 16-511): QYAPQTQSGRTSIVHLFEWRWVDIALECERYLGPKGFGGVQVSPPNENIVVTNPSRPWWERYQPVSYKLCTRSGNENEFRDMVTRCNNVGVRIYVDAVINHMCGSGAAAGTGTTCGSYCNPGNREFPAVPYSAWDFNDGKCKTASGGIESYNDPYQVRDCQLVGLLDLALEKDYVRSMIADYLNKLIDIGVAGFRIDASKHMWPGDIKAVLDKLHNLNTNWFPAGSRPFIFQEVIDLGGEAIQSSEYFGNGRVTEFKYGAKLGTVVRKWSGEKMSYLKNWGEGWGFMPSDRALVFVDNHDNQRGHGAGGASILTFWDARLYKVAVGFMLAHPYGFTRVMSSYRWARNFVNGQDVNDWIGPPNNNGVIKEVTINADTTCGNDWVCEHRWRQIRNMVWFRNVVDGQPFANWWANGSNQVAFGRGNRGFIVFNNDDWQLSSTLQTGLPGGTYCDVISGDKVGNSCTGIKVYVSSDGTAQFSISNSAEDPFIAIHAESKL
Method: The inhibition assay was performed using the chromogenic DNSA method. PPA was used for preliminary screening of α-amylase inhibitors. […] Moreover a high degree gene sequence similarity (~ 90%) exists between human salivary α-amylase (HSA) and PPA as reported by (Buisson et al 1987). Brayer et al (1995) have reported 97% primary sequence similarity between human salivary and human pancreatic α-amylases and a 70% structural similarity between PPA and HPA [11]. Thus, a high degree of similarity between PPA and HPA allows us to use it as the enzyme for screening inhibitors.
In brief, the total assay mixture consisting of 0.02 M sodium phosphate buffer, pH6.9, (containing 6 mM NaCl), 0.2–0.25 U of PPA and inhibitors (13.8–214.3 μM) in DMSO was incubated at 37°C for 10 min. After pre-incubation, the substrate starch (1%, w/v) solution was added to the reaction mixture and further incubated for 15 min. The control PPA (0.21 U) without any inhibitor represented 100% enzyme activity. One unit of enzyme activity is defined as the amount of enzyme required to release one micromole of maltose from starch/maltopentaose per min under the assay conditions. The other quantifiers calculated were: % Relative enzyme activity = (enzyme activity of test/enzyme activity of control)*100. % inhibition = (100 − % relative enzyme activity).
The IC50 values were determined from plots of percent inhibition versus inhibitor concentration and calculated by logarithmic regression analysis. To eliminate the absorbance produced by the compound, appropriate controls were included. The known PPA/HPA inhibitor acarbose was used as a positive control at a concentration range of 10–50 μM.

[6] = Cytotoxicity in AR42J cell line (MTT); conditions: rat, AR42J pancreatic acinar cells
Method: as §1

[7] = test system: AR42J rat pancreatic acinar cells; test: Cytotoxicity in AR42J cell line (MTT); conditions: AR42J; azadiradione 3.5 μM, gedunin 3.3 μM (Fig 3)
Method: as §1

[8] = target: T1, Human pancreatic α-amylase (HPA); test: Human pancreatic α-amylase inhibition and stoichiometry (DNSA); assay type: biochemical; conditions: percentage inhibition versus molar ratio of HPA and inhibitor; HPA 14.85 μM
Excerpt: The control HPA (0.25 U) without inhibitors represented 100% enzyme activity.

[9] = linear van't Hoff plot, 298–333 K

## CC(=O)O[C@@H]1C[C@H]2C(C)(C)C(=O)C=C[C@]2(C)[C@H]2CC[C@]3(C)C(=CC(=O)[C@H]3c3ccoc3)[C@@]21C [azadiradione]
[1]; 298 K
  -ΔG°: 21.25 k J mol^-1
  K a: 4300 M⁻¹
  Kd: 200 ± 3 µM
[1]; 303 K
  -ΔG°: 20.88 k J mol^-1
  K a: 3900 M⁻¹
  Kd: 200 ± 1 µM
[1]; 308 K
  -ΔG°: 20.27 k J mol^-1
  K a: 2700 M⁻¹
  Kd: 300 ± 5 µM
[1]; 313 K
  -ΔG°: 20.29 k J mol^-1
  K a: 2400 M⁻¹
  Kd: 400 ± 7 µM
[1]; 323K
  -ΔG°: 19.87 k J mol^-1
  K a: 1600 M⁻¹
  Kd: 600 ± 2 µM
[1]; 333K
  -ΔG°: 18.54 k J mol^-1
  K a: 810 M⁻¹
  Kd: 1200 ± 30 µM
[1]; 350 nm, azadiradione 3.9–118 μM, gedunin 2.0–51.86 μM
  Maximal quenching of intrinsic HPA fluorescence: 33%
[1]; calculated from binding constants, maximal affinity at 298 K
  Maximum ΔG° of binding: -21.25 kJ/mol
[1]; [9]
  Enthalpy (ΔHvH): -41.86 kJ/mol
  Entropy (-ΔS): 70.09 J mol^-1K^-1
[2]; 0.5% (w/v) starch, up to two hours
  Secreted amylase inhibition in starch load test: 22.9%
[2]; 24 h, at 11.1, 13.4 and 4.1 μM respectively
  Amylase inhibition at the cytotoxic IC50 concentration: 70.1%
[2]; AR-42J, 3.5 μM
  inhibition at 3.5 µM: 41.8%
[3]; maltopentaose as substrate, secondary plots
  Ki: 42.2 µM
[3]; starch as substrate, secondary plots
  Apparent K i ′: 75.8 µM
[3]; substrates starch and maltopentaose, Lineweaver-Burk
  Mode of HPA inhibition: mixed
[4]
  Cell death: 8.6%
[5]
  IC50: 138 µM
[6]
  IC50 at 24 h: 11.1 µM
[7]
  Cell morphology versus controls: no morphological change
[8]
  Stoichiometry of HPA inactivation: 0.66

From PMC4607367, “Gedunin and Azadiradione: Human Pancreatic Alpha-Amylase Inhibiting Limonoids from Neem (Azadirachta indica) as Anti-Diabetic Agents” (PLoS ONE, 2015)
